In one data set the test system is Sarcoma 180 solid tumour. Kind of data set: animal or person. The note with it: for ED50: Mus musculus, Sarcoma-180, ip, 168 h, read-out: ED50 ip. The class given is in vivo, mice (ddy strain). The text has this: (§1) Certain compounds were selected from Compounds I. The following Table 4 indicates anti-tumour activity against Sarcoma 180 solid tumour (ED50), acute toxicity (LD50) and effects on the peripheral leucocytes (WBC4000) of each compound.
(1) Effect against Sarcoma 180 solid tumour:
5×10^6 cells of Sarcoma 180 solid tumour cells were abdominally implanted into male mice of ddy strain. 7 days after this, ascites cells were sampled. The cells were washed once with a sterilized physiological solution of sodium chloride and were used to prepare a cell suspension containing 5×10^7 cells per ml. On each occasion, 0.1 ml of the cell suspension was subcutaneously implanted into the right armpit of a male mouse (ddy strain; body weight 20±2 g). 24 hours after the implantation of the tumour cells, the test compound which was dissolved in a physiological solution of sodium chloride with or without addition of Tween 80 was abdominally administered to each mouse of a group consisting of 5 animals at a does of 0.1-0.2 ml. The anti-tumour activity was determined as follows:
7 days after the implantation, the major axis (a) and the minor axis (b) of the tumour were measured to calculate a value of "a×b^2 /2" which corresponds to the volume of the tumour. The anti-tumour activity was expressed by T/C viz. the ratio of the volume of the tumours (T) of the group of animals administered with the test compound to the corresponding volume of tumours (C) of the untreated animals.
(2) Determination of ED50 :
The term ED50 denotes the administered amount needed for reducing the volume of Sarcoma 180 solid tumours in the animals to 50% on the basis of the corresponding volume of Sarcoma 180 solid tumours in control (untreated) animals.
On graph paper, T/C was indicated by an arithmetic scale on the longitudinal axis and the administered amount of test compound was indicated by a logarithmic scale on the lateral axis.

The next data set is described as follows: in vivo. Type of data set: in vivo, mice (ddy strain). Conditions: mouse, in vivo, ip; read-out: (WBC4000/ED50)* = (WBC4000/ED50)/[(WBC4000/ED50) of MMC1]. How it is done: as §1
(4) Effect upon the number of the peripheral leucocytes:
Sarcoma 180 solid tumour cells (5×10^6) were subcutaneously implanted into the right armpit of each mouse (body weight 20±2 g) of a group consisting of 5 male mice (ddy strain). 24 hours after implantation,a test compound was abdominally administered to each mouse. 4 days later, blood (each 0.02 ml) was collected from the suborbital plexus vein of each tumour-carrying mouse. The collected sample of blood was dispersed in 9.98 ml of Cell-kit Seven solution. One drop of saponin solution was added to the sample to dissolve erythrocytes and then a microcell counter was used to measure the number of leucocytes. On graph paper, the number of leucocytes was indicated on the y-axis by an arithmetic scale and the does of the test compound was indicated on the x-axis by a logarithmic scale.
The relationship between the number of peripheral leucocytes and the dosage of the test compound was plotted to obtain WBC4000 viz. the dosage corresponding to […] per mm^3 (about half of the number of leucocytes of normal mice).

The next data set can be described thus: Acute toxicity. Type of data set: in vivo, mice (ddy). The note with it: mouse, in vivo, ip; for LD50 at 336 h: ddy mice, single i.p., 14 days, Behren Korber's method; for selectivity ratio: read-out: (C.I.)* = (LD50/ED50)/[(LD50/ED50) of MMC1]. How it is done: as §1
Each animal of the test group consisting of 5 ddy mice was once administered (i.p.) with a test compound. […] The LD50 was determined by Behren Korber's method.

Some results are limits rather than exact numbers.

In general, ED50 refers to the midpoint of the dose-response relation. In general, LD50 refers to the dose at which mortality reaches 50%. Lower therefore signals a more toxic substance. For `CC1=C(NCCSSCCNC(=O)C(F)(F)F)C(=O)C2=C(C1=O)N1C[C@H]3[C@H](N3C)[C@]1(O)[C@H]2COC(N)=O` (some centres unmarked) [Compound 20, 7-N-[2-[(2-trifluoroacetamidoethyl)dithio]ethyl]mitomycin D], in the data set on Sarcoma 180 solid tumour, the ED50 was 11.6 mg/kg. In addition, the selectivity ratio in the data set “in vivo” is 4.4; in the data set “Acute toxicity” it was 0.93. Moreover, the LD50 at 336 h in “Acute toxicity” was found to be 30 mg/kg.
Regarding `CO[C@@]12[C@H](COC(N)=O)C3=C(C(=O)C(C)=C(NCCSSCc4c[nH]c(=O)[nH]c4=O)C3=O)N1C[C@@H]1N[C@@H]12` [Compound 37, 7-N-[2-[[(2,4-dioxopyrimidin-5-yl)methyl]dithio]ethyl]mitomycin C], the ED50 in the data set on Sarcoma 180 solid tumour came out at 16.4 mg/kg.
In the case of `CO[C@@]12[C@H](COC(N)=O)C3=C(C(=O)C(C)=C(NCCSSCCNC(=O)CCC(=O)Oc4c(C)c(C)c5c(c4C)CC[C@@](C)(CCC[C@H](C)CCC[C@H](C)CCCC(C)C)O5)C3=O)N1C[C@@H]1N[C@@H]12` [Compound 16], the ED50 in the data set on Sarcoma 180 solid tumour came out at 95.9 mg/kg. Also, the selectivity ratio was 1.2 in the data set “in vivo” and more than 0.37 in the data set “Acute toxicity”. Besides, the LD50 at 336 h in the data set “Acute toxicity” was more than 100 mg/kg.
For `CC1=C(NCCSSCCC(=O)N[C@@H](CCCCN)C(=O)O)C(=O)C2=C(C1=O)N1C[C@H]3[C@H](N3C)[C@]1(O)[C@H]2COC(N)=O` (stereo partly drawn) [Compound 25, 7-N-[2-[[2-[[(1S)-5-amino-1-carboxypentyl]carbamoyl]ethyl]dithio]ethyl]mitomycin D], in that order: 46.6 mg/kg, 1.59, more than 1.02 and more than 100 mg/kg.
As to `CO[C@@]12[C@H](COC(N)=O)C3=C(C(=O)C(C)=C(NCCSSCCS(=O)(=O)O)C3=O)N1C[C@@H]1N[C@@H]12` [Compound 36, 7-N-[2-[(2-sulfoethyl)dithio]ethyl]mitomycin C], the ED50 with Sarcoma 180 solid tumour worked out at 7 mg/kg.
In the case of `CC1=C(NCCSSCCC(=O)N[C@@H](CCCN)C(=O)O)C(=O)C2=C(C1=O)N1C[C@H]3[C@H](N3C)[C@]1(O)[C@H]2COC(N)=O` (stereo partly drawn) [Compound 24, 7-N-[2-[[2-[[(1S)-4-amino-1-carboxybutyl]carbamoyl]ethyl]dithio]ethyl]mitomycin D], the ED50 in the data set with Sarcoma 180 solid tumour was found to be 31.2 mg/kg. Further, the values for the selectivity ratio in the data set “in vivo” and in the data set “Acute toxicity” were 2.02 and more than 1.53, respectively. This compound also displayed an LD50 at 336 h in the data set “Acute toxicity” of more than 100 mg/kg.
The corresponding values for `CO[C@@]12[C@H](COC(N)=O)C3=C(C(=O)C(C)=C(NCCSSCCC(=O)NCCc4ccc(O)c(O)c4)C3=O)N1C[C@@H]1N[C@@H]12` [Compound 31, 7-N-[2-[[2-[[2-(3,4-dihydroxyphenyl)ethyl]carbamoyl]ethyl]dithio]ethyl]mitomycin C] are 7.1 mg/kg, 2.28, 1.15 and 26.3 mg/kg.
In the case of `CCOC(=O)CNC(=O)CCSSCCNC1=C(C)C(=O)C2=C(C1=O)[C@@H](COC(N)=O)[C@@]1(OC)[C@H]3N[C@H]3CN21` [Compound 29, 7-N-[2-[[2-[[(ethoxycarbonyl)methyl]carbamoyl]ethyl]dithio]ethyl]mitomycin C], in the data set on Sarcoma 180 solid tumour, the ED50 is 9.4 mg/kg. Further, the figures for the selectivity ratio in “in vivo” and in “Acute toxicity” were 2.9 and 1.77, respectively. This compound showed an LD50 at 336 h in “Acute toxicity” of 33.8 mg/kg.
Turning to `CO[C@@]12[C@H](COC(N)=O)C3=C(C(=O)C(C)=C(NCCSSCCC(=O)N[C@@H](CCCN)C(=O)O)C3=O)N1C[C@@H]1N[C@@H]12` [Compound 22, 7-N-[2-[[2-[[(1S)-4-amino-1-carboxybutyl]carbamoyl]ethyl]dithio]ethyl]mitomycin C], the ED50 in the data set with Sarcoma 180 solid tumour was 5 mg/kg.
Regarding `CCOC(=O)CNC(=O)C(C)SSCCNC1=C(C)C(=O)C2=C(C1=O)[C@@H](COC(N)=O)[C@@]1(OC)[C@H]3N[C@H]3CN21` (some centres unmarked) [Compound 30, 7-N-[2-[[1-[[(ethoxycarbonyl)methyl]carbamoyl]ethyl]dithio]ethyl]mitomycin C], in the data set with Sarcoma 180 solid tumour, the ED50 came to 10.3 mg/kg.
With “7-N-[2-[[2-[[(1S)-5-amino-1-carboxypentyl]carbamoyl]ethyl]dithio]ethyl]mitomycin C [Compound 23]”, in the data set on Sarcoma 180 solid tumour (ddy mice, i.p. 24 h after implantation, 50% reduction of tumour volume at day 7), the ED50 ip is 6.2 mg/kg.

The values above are taken from patent US5103018A, “Mitomycin derivatives” (Kyowa Hakko Kogyo Kabushiki Kaisha, priority 1986, dated 1992).
